For experiment [1], the target named is T1, PDZ1 of PSD-95 (Homo sapiens, UniProt P78352).
T1 construct: PSD-95 PDZ1 (residues 61-151); made in house; host or cells: E. coli BL21-DE3 pLysS
The experiment is described as follows: FP heterologous competition binding assay. Conditions: FP competition; mean ± SEM; NA = no activity/affinity. The text has this:
(§1) Determined IC50 values may be converted to Ki values.^5 Suitable fluorophores include either 5-FAM or Cy5, which may be coupled to a tripeptide (KSG or CSG) linker attached to the N-terminus of the undecapeptide, to give 5-FAM-NR2B, Cy5-NR2B, 5-FAM-CRIPT and Cy5-CRIPT. The 5-FAM fluorophore may be attached to the undecapeptides by coupling with HATU. The Cy5 fluorophore may be conjugated to the undecapeptides by coupling Cy5-maleimide to the cysteine side chain of the tripeptide sequence CSG attached to the N-terminus of the peptide, as detailed in the Methodology section.
(§2) To measure the affinities between non-fluorescent peptides and PDZ domains, heterologous competition bindings assay were performed. This was done by adding increasing concentrations of peptide to a fixed concentration of Cy5-NR2B, 5-FAM-NR2B, Cy5-CRIPT or 5-FAM-CRIPT (50 nM) and PDZ (20 μM for PDZ1, 3 μM for PDZ2 and 1-2 and 5 μM for PDZ3) in the same TBS buffer and conditions as described above. FP values were then fitted to the general equation: Y=Bottom+(Top−Bottom)/[1[…](10̂^X-logIC50)], where X is the logarithmic value of peptide concentration. Hereby the IC50 value was obtained, which is used to calculate the theoretical competitive inhibition constant, Ki.^5
(§3) A convenient and reliable way to examine interactions between peptide analogues and PDZ domains is by using a fluorescence polarization (FP) assay. The three PDZ domains, PDZ1-3, of PSD-95 were expressed individually as set out above, while PDZ1-2 was also expressed as a tandem construct. […] IC50 values were then converted to Ki values.^5

Experiment [2] concerns the target T2, PDZ2 of PSD-95 (Homo sapiens, UniProt P78352).
T2 construct: PDZ2 (residues 155-249); made in house; host or cells: E. coli BL21-DE3 pLysS
Nature of the experiment: FP heterologous competition binding assay.
Text: as §1, §2, §3

Experiment [3] concerns the target T3, PDZ3 of PSD-95 (Homo sapiens, UniProt P78352).
T3 construct: PDZ3 (residues 309-401); made in house; host or cells: E. coli BL21-DE3 pLysS
Nature of the experiment: FP heterologous competition binding assay. Conditions: FP competition; mean ± SEM; NA = no activity/affinity.
Text: as §1, §2, §3

In experiment [4] the target is T4, PSD-95's PDZ2 domain (Homo sapiens, UniProt P78352).
T4 construct: PDZ2 (residues 155-249); His-tag (thrombin-cleavable) (cleaved yes); made in house; host or cells: E. coli (as for the other PDZ constructs)
Nature of the experiment: Polyhistidine pull-down assay. Type of experiment: binding. Conditions: 200 μM.
Text: The polyhistidine pull-down is an in vitro technique that consists of a polyhistidine-tagged bait NRB2 or CRIPT protein C-terminal domain (e.g NR2B WT peptide with the sequence [sequence]) that can be used to identify competitors of a PDZ domain-binding partner (PDZ domain of PSD-95) (the prey). The bait protein is immobilized on cobalt chelated affinity gel. The bait serves as the secondary affinity support for the protein partner to the bait and for identifying competitors that can displace the prey from the bait. The competitors are peptide analogues, specifically an NMDAR/PSD-95 inhibitor of the present invention. PPIs, between the prey and bait are analyzed by chemically dissociating/eluting the bound prey (PDZ domain or peptide analogue) and visualizing the prey by SDS-PAGE and associated detection methods depending on the sensitivity requirements of the interacting proteins. These methods include Coomassie® Dye, silver, and zinc staining; western blotting; and [^35S] radioisotopic detection. Alternatively, the displaced prey detected on the gel, can be isolated from a polyacrylamide gel, and further analyzed. […]
As bait, a polyhistidine NR2B WT peptide with the sequence [sequence] was synthesized. […] Eluted PDZ2 was analyzed by SDS-PAGE and silver staining.

Data on one compound can be found in US20160176924A1, “MODIFIED PEPTIDES AS POTENT INHIBITORS OF THE PSD-95/NMDA RECEPTOR INTERACTION” (priority 2008, published 2016).

As usually defined, the Ki is a measure of affinity in units of concentration, obtained from inhibition or displacement. For the compound `CN[C@@H](CCC(=O)O)C(=O)N[C@H](C(=O)N[C@@H](C)C(=O)N[C@H](C(=O)O)C(C)C)C(C)O` (some centres unmarked) [Compound 40, N-Methyl-ETAV], the Ki in experiment [1] turned out to be 11 ± 0.47 µM; in experiment [2] (FP competition, mean ± SEM, NA = no activity/affinity) it was 8.9 ± 0.5 µM; in experiment [3], 78 ± 1.5 µM. For the same compound, the “fold increase in Ki (loss of affinity) compared to NR2B peptide (1), PDZ2” value in experiment [2] stood at 2 fold. Moreover, the “inhibition of PDZ2 binding to NR2B WT bait in pull-down, in words” value in experiment [4] is listed as “very effective inhibitor”.
